Measurements from patent US10806819B2, “Wound coverings comprising vitamin d and related methods” (Marshall University Research Corporation, priority 2015, dated 2020).

Columns and labels:
[1] = tested on: Staphylococcus aureus; conditions: cited from earlier work
[2] = tested on: cell growth; conditions: direct administration; cited from earlier work
[3] = tested on: cathelicidin (hCAP18) in HaCat cells; assay: immunofluorescence assay of cathelicidin (hCAP18) expression in HaCat cells; format: cell-based, human
Description: (§1) This Example describes an immunofluorescence assay performed on cells treated with the PCL produced in Example 1. The cells were treated with different formulations as discussed above, the cells were rinsed with PBS twice and fixed with 4% paraformaldehyde for 30 min at 37° C. followed by incubation with TNBS (0.05% Triton-X100, 2% FBS in pH 7.2 PBS) for 30 minutes at room temperature prior to immunostaining. Goat anti-cathelicidin polyclonal antibody (1:200) was incubated to label intercellular cathelicidin at 4° C. overnight. Both the full length and cleaved C terminus of cathelicidin (hCAP18) were labeled. Mouse anti-goat IgG-FITC antibody (1:100) was incubated for 2 h after removal of primary antibody and washed with TNBS three times. Then, the secondary antibody was removed and washed by TNBS three times. Nuclei were counterstained with 10 μM DAPI in blue. Images were taken with a digital camera (Carl Zeiss). The exposure time for taking images for HaCat and U937 cells was fixed at 400 ms and 40 ms, respectively.

[4] = tested on: cathelicidin (hCAP18) in U937 cells; assay: immunofluorescence assay of cathelicidin (hCAP18) expression in U937 cells; format: cell-based, human
Description: as §1

[5] = tested on: U937 cells; assay: U937 cell proliferation / cytotoxicity (cell counting); format: cell-based, human; conditions: 5.0×10^−6 M, 3 days and 5 days
Description: (§2) This Example describes cell proliferation of cells treated with the PCL fibers produced in Example 1. Human keratinocyte cell line (HaCat) and monocyte cell line (U937) were cultured in D-MEM with 10% FCS and RPMI-1640 media with 10% FCS respectively. The cultures were maintained at 37° C. under 95% air and 5% CO2 until reaching 80% confluence. The subconfluent HaCat cells were dissociated with a 0.05% trypsin-EDTA and re-suspended in a fresh complete media. U937 cells were precipitated by 300 g centrifugation and then re-suspended in a fresh complete media. The single HaCat cell suspensions were created by gently pipetting up and down HaCat cell aggregates and then placed in 6-cm culture dishes and incubated for 1 day. At the beginning of experiments, 5.0×10^5, 2.0×10^5 and 1.0×10^5 cells were seeded in the culture dishes for 1-day, 3-day, and 5-day treatments, respectively. The media was then replaced by D-MEM containing 0.52% DMSO, D-MEM containing 5.0×10^−7 M 25(OH)D, D-MEM containing 5.0×10^−6 M 25(OH)D, D-MEM containing 1 mg/ml pristine PCL fibers, and D-MEM containing 1 mg/ml 25(OH)D loaded PCL fibers and incubated for 1, 3, and 5 days. Of note, 5.0×10^−6 M 25(OH)D was chosen as a control due to cytotoxicity in OKF6-TERT2 cells. […]
(§3) The HaCat cells and U937 cells were seeded in 24-well plates. […] The cell density was calculated based on the cell counting (FIGS. 5A-5B). […]

[6] = tested on: OKF6-TERT2; conditions: recent study; cited from earlier work
[7] = tested on: HaCat cells; assay: HaCat cell proliferation / cytotoxicity (cell counting); format: cell-based, human; conditions: 5.0×10^−6 M free drug
Description: as §2, §3

[8] = tested on: LL-37 production in U937 cells; assay: LL-37 ELISA of U937 cell lysate; format: cell-based, human; conditions: for amount of LL-37 produced from U937 cells: 5.0×10^−6 M
Description: (§4) This Example describes the production of LL-37 in cells treated with the PCL fibers produced in Example 1. Single cell suspensions of both HaCat cells (human keratinocyte cell line) and U937 cells (leukemic monocyte lymphoma cell line) were seeded in 6-cm culture dishes. 5.0×10^5, 2.0×10^5 and 1.0×10^5 cells were seeded in the culture dishes for 1-day, 3-day, and 5-day treatments, respectively. Cells were treated with different formulations as described above and harvested at each time point. The subconfluent HaCat cells and U937 cell suspensions were washed with PBS twice. Subsequently, 300 μl of the M-PER mammalian protein extraction reagent with 0.1% protease inhibitor cocktail was added to […]. They were agitated for 20 min and lysate was collected and transferred to a 1.5-ml microcentrifuge tube. The samples were centrifuged at 14000×g for 40 min at 4° C. to pelletize the cell debris and the supernatant was transferred to a new tube for analysis. Total protein concentration was tested by MicroBCA kit before ELISA test. Concentrations of LL-37 in cell lysate were determined by LL-37 ELISA assay kit based on the manufacturer's instructions.

[9] = tested on: LL-37 production in HaCat cells; assay: LL-37 ELISA of HaCat cell lysate; format: cell-based, human; conditions: 5.0×10^−7 M free drug
Description: as §4

[10] = tested on: Pseudomonas aeruginosa; assay: antibacterial activity of U937 lysis solutions (CFU count on agar plates); format: cell-based; conditions: U937 treated with 5.0×10^−6 M for 5 days
Description: FIG. 8 is a graph showing the quantification of Pseudomonas aeruginosa CFUs treated by U937 lysis solutions. U937 were incubated in the presence of 1 mg/ml pristine PCL fibers, 0.52% DMSO, 5.0×10^−7 M 25(OH)D, 5.0×10^−6 M 25(OH)D, and 1 mg/ml plasma treated and 25(OH)D loaded PCL fibers (containing 5.0×10^−7M 25(OH)D equivalent amount based on the calculations from release profiles in the first 3 days) for 1, 3 and 5 days. Bacteria were incubated with cell lysis solutions and CFUs were counted on agar plates. Each data point represents arithmetic mean±SD values from three samples. Statistical significance was evaluated by student's t-test (*p<0.05).
This Example describes the antibacterial activities in cells treated with the PCL fibers produced in Example 1. Briefly, bacteria were incubated with cell lysis solutions and CFUs were counted on agar plates.

Compound: LL-37: human cathelicidin, small cationic antimicrobial peptide derived from hCAP-18
- EC50 against Staphylococcus aureus [1]: 1.27 µg/mL

Compound: C=C1/C(=C\C=C2/CCC[C@]3(C)[C@@H]([C@H](C)CCCC(C)(C)O)CC[C@@H]23)C[C@@H](O)C[C@@H]1O [1,25-hydroxyvitamin D3]
- concentration generating cytotoxicity and inhibition of cell growth [2]: 10^−7 M

Compound: C=C1CC[C@H](O)C/C1=C/C=C1\CCC[C@]2(C)[C@@H]([C@H](C)CCCC(C)(C)O)CC[C@@H]12 [25(OH)D, 25-hydroxyvitamin D3]
- hCAP 18 staining in HaCat cells ([3]; 5.0×10^−6 M, 3 days): positive green fluorescent staining
- hCAP 18 expression in HaCat cells ([3]; 5.0×10^−7 M): did not demonstrate hCAP 18 expression
- change of fluorescence intensity (hCAP 18) of U937 cells ([4]; 5.0×10^−6 M, day 1 to day 3): increased
- change of fluorescence intensity (expression level of hCAP 18) of U937 cells ([4]; 5.0×10^−6 M, day 3 to day 5): decreased
- hCAP 18 expression in U937 cells ([4]; 5.0×10^−6 M, one day): exhibited expression of hCAP 18
- cathelicidin staining in U937 cells ([4]; 5.0×10^−7 M, each time point): negative staining
- proliferation rate of U937 cells [5]: reduced dramatically
- concentration toxic to OKF6-TERT2 [6]: ≥ 5 µM
- concentration with little cytotoxicity in OKF6-TERT2 [6]: lower than 5.0×10^−7 M
- cytotoxic effects on HaCat cells [7]: marginal cytotoxic effects
- amount of LL-37 produced from U937 cells ([8]; 3 days): increased
- amount of LL-37 produced from U937 cells ([8]; 5 days): decreased sharply
- production of hCAP 18 and LL-37 in U937 cells ([8]; 5.0×10^−7 M free drug): failed to induce production of significant amount
- production of hCAP 18 and LL-37 in HaCat cells [9]: failed to induce production of significant amount
- numbers of CFUs after incubation with U937 lysis solutions, versus other treatment groups [10]: significantly lower numbers of CFUs
